Laboratory results taken from US5434141A, “Medicament for the treatment of hyperlipidaemia and/or atherosclerosis” (Steigerwald Arzneimittelwerk GmbH, priority 1990, dated 1995).
Entries after “also recorded” stand apart in the source; their conditions may differ. Like-named read-outs stand apart in the source and are kept apart here.

Columns and labels:
[1] = Procedure: (§1) 3 Groups each of 20 male golden hamsters were fed for 4 weeks with a lipidaemia diet (hamster maintenance diet and 2% cholesterol). The feed in the two treated groups was additionally supplemented with in each case 5% galacturonic acid or DEAE-polygalacturonic acid (DEAE=diethylaminoethyl).
(§2) 3 Groups each of 20 male golden hamsters were treated for 4 weeks like the animals described in 1. […] Group 1 was the lipidaemia control.

[2] = Experiment 2: hepatic lipid concentration in hamsters fed a lipidaemia diet, 4 weeks; format: in vivo, male golden hamsters; conditions: four weeks
Procedure: as §1, §2

[3] = Experiment 1: serum cholesterol and lipid concentration in hamsters fed a lipidaemia diet, 4 weeks; format: in vivo, male golden hamsters; conditions: for hypocholesterolaemic / lipid-lowering action, in words: serum
Procedure: (§3) 3 Groups each of 20 male golden hamsters were fed for 4 weeks with a lipidaemia diet (hamster maintenance diet and 2% cholesterol).
(§4) The dose taken was between 4 and 5 g/kg of body weight and day.
(§5) After 4 weeks the animals were sacrificed and the serum and hepatic lipid concentration was measured. The results of the analyses are compiled in Tables 1, 2 and 3.

[4] = Experiment 1: hepatic lipid concentration in hamsters fed a lipidaemia diet, 4 weeks; format: in vivo, male golden hamsters; conditions: four weeks
Procedure: as §3, §4, §5

[5] = Tolerability / toxic effects (general statement); conditions: in vivo
[6] = by contrast with pectin; cited from earlier work
[7] = in vivo; cited from earlier work
[8] = mean, n = 20/group, 5% in feed, four weeks
[9] = mean, n = 20/group, 5% in feed, four weeks, * p ≤ 0.05
[10] = significant, p≤0.05, four weeks
[11] = mean, n = 20/group, 5% in feed, * p ≤ 0.05

polygalacturonic acid
Free cholesterol in serum, D = difference from the control group ([1]; 5% in feed, four weeks): -32% | HDL-cholesterol in serum, D = difference from the control group ([1]; 5% in feed, four weeks): -15% | LDL-cholesterol in serum, D = difference from the control group ([1]; 5% in feed, four weeks): -18% | Phospholipids in serum, D = difference from the control group ([1]; 5% in feed, four weeks): -19% | Total cholesterol in serum, D = difference from the control group ([1]; 5% in feed, four weeks): -13% | Total lipids in serum, D = difference from the control group ([1]; 5% in feed, four weeks): -14% | VLDL + LDL-cholesterol in serum, D = difference from the control group ([1]; 5% in feed, four weeks): -8% | VLDL-cholesterol in serum, D = difference from the control group ([1]; 5% in feed, four weeks): -4% | Phospholipids concentration in serum [1, 8]: 385 mg/dL | Total lipids concentration in serum [1, 8]: 1338 mg/dL | Triglycerides concentration in serum [1, 8]: 269 mg/dL | Free cholesterol concentration in serum [1, 9]: 80 mg/dL | HDL-cholesterol concentration in serum [1, 9]: 149 mg/dL | LDL-cholesterol concentration in serum [1, 9]: 163 mg/dL | Total cholesterol concentration in serum [1, 9]: 361 mg/dL | VLDL + LDL-cholesterol concentration in serum [1, 9]: 212 mg/dL | VLDL-cholesterol concentration in serum [1, 9]: 48 mg/dL | lowering of serum phospholipid concentration ([1]; significant, four weeks): 19% | lowering of serum total lipid concentration ([1]; significant, four weeks): 14% | lowering of serum HDL-cholesterol [1, 10]: 15% | lowering of serum free cholesterol [1, 10]: 32% | lowering of serum total cholesterol [1, 10]: 13% | Hepatic cholesterol, D = difference from the control group ([2]; 5% in feed): -26% | Hepatic total lipids, D = difference from the control group ([2]; 5% in feed): -25% | Hepatic cholesterol concentration [2, 11]: 22.1 mg/g wet weight | Hepatic total lipids concentration [2, 11]: 67.4 mg/g wet weight | lowering of hepatic cholesterol concentration ([2]; significant): 26% | lowering of hepatic total lipid concentration ([2]; significant): 25%

O=C(O)[C@H]1O[C@H](O)[C@H](O)[C@@H](O)[C@H]1O [galacturonic acid, α-D-galacturonic acid]
Free cholesterol in serum, D = difference from the control group ([3]; 5% in feed, four weeks): -19% | HDL-cholesterol in serum, D = difference from the control group ([3]; 5% in feed, four weeks): -20% | LDL-cholesterol in serum, D = difference from the control group ([3]; 5% in feed, four weeks): -23% | Phospholipids in serum, D = difference from the control group ([3]; 5% in feed, four weeks): -17% | Total cholesterol in serum, D = difference from the control group ([3]; 5% in feed, four weeks): -20% | Total lipids in serum, D = difference from the control group ([3]; 5% in feed, four weeks): -18% | Triglycerides in serum, D = difference from the control group ([3]; 5% in feed, four weeks): +7% | VLDL + LDL-cholesterol in serum, D = difference from the control group ([3]; 5% in feed, four weeks): -20% | VLDL-cholesterol in serum, D = difference from the control group ([3]; 5% in feed, four weeks): -14% | Phospholipids concentration in serum [3, 8]: 322 mg/dL | Total lipids concentration in serum [3, 8]: 1060 mg/dL | Triglycerides concentration in serum [3, 8]: 216 mg/dL | Free cholesterol concentration in serum [3, 9]: 96 mg/dL | HDL-cholesterol concentration in serum [3, 9]: 118 mg/dL | LDL-cholesterol concentration in serum [3, 9]: 117 mg/dL | Total cholesterol concentration in serum [3, 9]: 271 mg/dL | VLDL + LDL-cholesterol concentration in serum [3, 9]: 153 mg/dL | VLDL-cholesterol concentration in serum [3, 9]: 36 mg/dL | hypocholesterolaemic / lipid-lowering action, in words [3]: significant decrease in the cholesterol and lipid concentrations; also recorded: has a hypocholesterolaemic action | hypocholesterolaemic / lipid-lowering action, in words ([3]; listed as α-D-galacturonic acid): shows a hypocholesterolaemic action in the serum | lowering of serum HDL-cholesterol ([3]; significant, four weeks): 20% | lowering of serum LDL-cholesterol ([3]; significant, four weeks): 23% | lowering of serum VLDL- plus LDL-cholesterol ([3]; significant, four weeks): 20% | lowering of serum free cholesterol ([3]; significant, four weeks): 19% | lowering of serum phospholipid concentration ([3]; significant, four weeks): 17% | lowering of serum total lipid concentration ([3]; significant, four weeks): 18% | lowering of serum concentration of total cholesterol [3, 10]: 20% | Hepatic cholesterol, D = difference from the control group ([4]; 5% in feed): -9% | Hepatic total lipids, D = difference from the control group ([4]; 5% in feed): -34% | Hepatic cholesterol concentration [4, 11]: 27 mg/g wet weight | Hepatic total lipids concentration [4, 11]: 111 mg/g wet weight | reduction of total lipid concentration in the liver ([4]; significant): 34% | tolerability [5]: as a rule well tolerated | solubility in water [6]: readily soluble in water | toxic effects [7]: No toxic effects are known
